What is called IC50 is the point on the concentration scale where inhibition reaches its midpoint. Low values mean higher potency, high ones lower potency.

These results are taken from article PMC7558282, “The Anticancer Activity for the Bumetanide-Based Analogs via Targeting the Tumor-Associated Membrane-Bound Human Carbonic Anhydrase-IX Enzyme” (Pharmaceuticals, 2020).

Structures are written as SMILES.

In assay [1] the test system is A-498 kidney carcinoma cells. Kind of assay: MTT cell proliferation assay, A-498. The assay is classed as cell-based, human. The following applies: Homo sapiens, A498, 48 h, ±SEM. The protocol:
(§1) Cells were cultured in 96-well plate, at cell density of 1.2–1.8 × 10^4 cells/well, using Dulbecco’s Modified Eagle Medium (Invitrogen^TM, Carlsbad, CA, USA) supplemented with 10% (w/v) fetal bovine serum (Hyclone^TM, Marlborough, MA, USA), 10 ug/mL of insulin (Sigma-Aldrich^TM, St. Louis, MO, USA), and 1% (w/v) penicillin-streptomycin (Sigma-Aldrich^TM, St. Louis, MO, USA). Following 24h-incubation period under 5% CO2 at 37 °C, cells were treated with compounds’ serial concentrations (0.1 µM–100 µM) in DMSO, where the DMSO final concentration in the culture medium never exceeded 0.2% (v/v). Subsequently, the treated microplates were incubated for 48 h at 5% CO2/37 °C prior to examination under the inverted microscope and proceeding for the MTT assay. The culture medium was discarded and 100 µL of complete medium comprising 5 mg/mL MTT dye were dispensed within every well, then plates were reincubated for 2 h at 5% CO2/37 °C. […] Color intensity within each well was measured spectrophotometrically using the ROBONIK-P2000® ELISA microplate reader (Bio-Tek^TM, Winooski, VT, USA) at 450 nm while subtracting the background absorbance of multi well plates at 690 nm. The experiment was conducted in triplicates and IC50 values were estimated through linear regression between the logarithm-transformed compound concentrations and corresponding % cell viability = (mean absorbance in test wells/mean absorbance in control wells) ∗ 100, having the response variable slope (four parameters) for all samples.
Background: Tetrazolium assays rely on reduction of a dye to a coloured formazan, in cell work by metabolically active cells.

Assay [2] concerns SCaBER bladder squamous cell carcinoma cells. Kind of assay: MTT cell proliferation assay, SCaBER. The assay is classed as cell-based. The conditions noted are these: Homo sapiens, 48 h, ±SEM. Here is the method: as §1
In a further assay the test system is A-498 cells. Kind of assay: Annexin V/PI apoptotic assay in A-498. The assay is classed as cell-based, human. The conditions noted are these: 6 µM, 48 h; control 1.3%. Here is the method: The efficient antiproliferative activity of compound 9c on the kidney carcinoma A-498 cell line (Table 2) prompted a further investigation of its mechanistic growth inhibitory action. Thus, the impact of bumetanide analog 9c at 6 µM for 48 h on cell cycle distribution and induction of apoptosis in A-498 cells was next explored. […] Analysis of apoptosis was performed to determine the mode of cell death induced by 9c in A-498 cells. Compound 9c induced both early and late apoptosis in A-498 cells at 6 µM when compared to the untreated control cells (p < 0.01 and p < 0.001, respectively) (Figure 5A). […]
Figure 5 Compound 9c potently induces apoptosis in kidney carcinoma cell line A-498 cells (Annexin V/PI FACS). (A) Effect of compound 9c in A-498 cells analyzed by flow cytometry after double staining of the cells with Annexin-V-FITC and PI. […] (B) Quantitative analysis of apoptosis. […]
A-498 Cells were seeded at a density of 1 × 10^5 cells/well in 24-well plates and treated with compound 9c (6 µM) for 48 h. […] The DNA content of cells (10,000 cells/experimental group) was analyzed by flow cytometer at 488 nm using a FACSCalibur flow cytometer (BD Biosciences, San Jose, CA, USA) and all data were recorded and analyzed using the CellQuest Software (Becton-Dickinson Biosciences, San Jose, CA, USA). […]

The target of another assay is hCA-II (Homo sapiens, UniProt P00918). Nature of the assay: colorimetric CA-inhibition assay based on CA-esterase activity, hCA-II. The conditions noted are these: hCA-II IC50, three replicate experiments; N/D = non-detected IC50 within the range of the tested concentrations.
A further assay addresses hCA-IX (Homo sapiens, UniProt Q16790). Nature of the assay: colorimetric CA-inhibition assay based on CA-esterase activity, hCA-IX.

Protocol for hCA-II: (§2) Based on the kit manufacturer’s protocol, the candidate inhibitors were dissolved in DMSO at 10 × highest final test concentration and specific aliquots of such working dilutions were incubated with the target hCA isozyme for 10 min at room temperature prior to permit the formation of the enzyme-inhibitor complex. Triplicate experiments were performed for each candidate inhibitor concentration. Parallel wells of solvent and enzyme controls were prepared to test the solvent impact upon the activity of the target enzyme. […] Following incubation, the CA-substrate was added and changes in absorbance (at 405 nm) were monitored for 60 min at room temperature within the kinetic mode. The negative enzyme control wells (without added compounds) were arbitrarily set as 100% enzyme activity. […] Absorbance readings from background wells were subtracted from the compound assay wells in order to account for background hydrolysis activity caused by the buffer solution [44, 45].
Protocol for hCA-IX: as §2

With `CCCCNc1cc(-c2n[nH]c(=S)n2-c2ccc(Br)cc2)cc(S(N)(=O)=O)c1Oc1ccccc1` [Compound 9c], the 50% inhibitory concentration (IC50) amounted to 5.07 ± 0.11 µM in assay [1]; 8.8 ± 1.9 µM in assay [2]; 320 nM on hCA-II; 4.42 nM on hCA-IX (hCA-IX IC50, three replicate experiments). Also, the “Annexin V-staining positive cells (total apoptotic cells)” value with A-498 cells amounted to 25.5%. The “Selectivity Ratio II/IX” value on hCA-IX (ratio of IC50 values for isozyme CA-II relative to CA-IX) came out at 72.4.
